Assay results taken from patent US10869846B2, “N-acetylcysteine amide (NAC amide) in the treatment of diseases and conditions associated with oxidative stress” (SENTIENT LIFESCIENCES, INC., priority 2005, dated 2020).
Several values for one entry are separate records, joined by “and”; a condition that tells them apart may be missing. Equal entries are not always repeated. Marks after values point to notes of the source that are not given here.

Tests used:
Type in all cases: in vivo, rat
Sprague-Dawley rats = assay: Survival after whole body single-dose X-ray irradiation (9 Gy); conditions: for survival rate versus XRT alone: pre-treated before XRT
Text: This Example describes a study observing the survival of rats receiving whole body, single-dose irradiation by X-rays (XRT) in the presence or absence of NAC or NAC amide (TOVA). In this experiment, thirty-nine female Sprague-Dawley rats ranging from about 150-200 g were subjected to total body, single-dose X-ray irradiation (9 Gy, 16 Mev). The same groups were designated to receive either NAC or TOVA. For the pre-treatment groups (n=6 in each group), the first treatment of NAC or TOVA was administered 30 minutes to 1 hour before irradiation. For the post-pretreatment groups (n=6 in each group), the first treatment of NAC or TOVA was administered 30 minutes to 1 hour after the irradiation. For groups receiving NAC or TOVA, the same amount (500 mg/kg NAC or TOVA daily) was administered for 4 or 5 consecutive days.
Group 1 was a control group (n=3), where rats received the same amount of saline solution daily for 5 consecutive days without XRT. Group 2 rats received NAC only (n=3) at an amount of 500 mg/kg body weight NAC daily for 5 consecutive days without XRT. Group 3 rats received TOVA only (n=3) at an amount of 500 mg/kg body weight TOVA daily for 5 consecutive days without XRT. Group 4 rats received radiation (XRT) only (n=6) and received the same amount of saline solution daily for 5 consecutive days after single dose total-body XRT irradiation.
Group 5 rats received one treatment of NAC at 500 mg/kg body weight before XRT (XRT+NAC pre-treated), which was then followed by 500 mg/kg body weight NAC daily for 4 consecutive days after XRT. Group 6 rats received XRT, followed by daily doses of NAC at 500 mg/kg body weight for 5 consecutive days after XRT (XRT+NAC post-treated). Group 7 rats […] at 500 mg/kg body weight before XRT (XRT+TOVA pre-treated), which was then followed by 500 mg/kg body weight TOVA daily for 4 consecutive days after XRT. Group 8 rats received XRT, followed by daily doses of TOVA at 500 mg/kg body weight for 5 consecutive days after XRT (XRT+TOVA post-treated). All rats were then given a normal diet post-treatment.
The rats were observed twice a day, and the survival status of rats in each group will be recorded. The mean survival days were calculated for each group and compared to the survival differences of the three groups of rats at the end of the experiment. The radioprotective effects of NAC and TOVA treatment on the survival of those irradiated rats were then evaluated, as shown in the following tables.

Sprague Dawley rats [1] = assay: Catalase activities in tissues after 6Gy total-body x-ray radiation; conditions: KIDNEY, 500 mg/kg orally; for Catalase level: individual animals; for Catalase Mean: n = 3
Sprague Dawley rats [2] = assay: MDA levels in tissues after 6Gy total-body x-ray radiation; conditions: for MDA level / MDA Mean: 6Gy total-body x-ray, 500 mg/kg orally; for MDA level: individual animals; for MDA Mean: n = 3; for lung MDA levels: treatment concurrent with irradiation, versus irradiation alone
Procedure: Animal studies: The irradiation of rats was performed at the Radiation Oncology Department of the Phelps County Regional Medical Center in Rolla, Mo., using a 16 MeV beam generated by a Varian linear accelerator, model Clinac 1800, and in accordance with the standards of humane laboratory animal protocols. A 20×20 or 25×25 cm field was used and output factors were checked once a week. Twelve animals were divided into 4 groups each containing 3 animals (Control, XRT, NAC amide+XRT and NAC+XRT). The radiation (XRT) control received whole body irradiation by 6 Gy of 16 MeV electrons. The NAC amide+XRT group received 500 mg/kg/day NAC amide immediately before irradiation and for three days after until sacrifice. The rats were anesthetized and heparinized blood was collected via cardiopuncture. Following sacrifice, liver, lung, brain and spleen were removed and stored at −70° C. until homogenization.
All experiments were performed using adult Albino SASCO Sprague Dawley female rats weighing about 250 g, which were purchased from Charles River Laboratories Inc. (Portage, Mich.). Twelve rats were shipped in paper crates (4 in each crate). Rats were delivered with a certificate including serological, bacteriological, pathological parasitological information. They were divided into 4 cages (3 rats in each cage) and kept in a temperature controlled (20° C.) room equipped to maintain a 12 h light-dark cycle. Standard rat chow (Purina rat chow) and tap water were supplied in individual glass bottle and given ad libitum. Water was changed daily. Weights of the animal were taken before giving the NAC amide treatment solution and amount of food eaten and water consumed was not measured because NAC amide was given orally but not in the drinking water or food.
NAC amide was provided by Novetide Ltd (Haifa Bay, Israel) including certificate of analysis and MSDS (lot #40233-64). NAC amide feeding solution was prepared freshly each day right before the administration by weighing 1.25 g NAC amide solid sample (Type HR-120 electronic balance, A&D Company limited, Japan. S/N: 12202464) and adding into 10 ml PBS solution and put on ice. One ml of this solution was administrated (gavaged) per rat orally by using animal feeding biomedical needles and 3 ml BD Luer-Lok Tip syringes. Rats received one-dose total-body 6 Gy/16 MeV x-ray radiation and 3 rats in each group were held in a covered bucket and received radiation at the same time. Each day at the same time, 500 mg/Kg body weight of NAC amide was administrated to the animals.
For MDA levels, 350 μL tissue homogenate was used to react with 100 μL of 500 ppm BHT solution and 550 μL solution of 10% TCA solution, therefore, the total volume here was 1000 μL. After boiling the whole solution, 500 μL was taken out and react with 500 μL TBA and the total volume here was 1000 μL also.
Glutathione (GSH) and Glutathione Disulfide (GSSG) Determination: Cells or tissue samples were homogenized on ice and derivatized with N-(1-pyrenyl)-maleimide (NPM). The derivatized samples were injected onto a 3 μm C18 column (Column Engineering) in a reverse phase HPLC system with a mobile phase of 35% water, 65% acetonitrile containing 1 mL/L of acetic acid and o-phosphoric acid (R. Winters, et al., Anal. Biochem., 227:14-21 (1995) and H. H. Draper et al., Free Rad. Biol. Med., 15:353-363 (1993)). Malondialdehyde (MDA) determinations were made as described in J. Gutteridge, Anal. Biochem., 69: 518-526 (1975).

[3] = Table 15, XRT 9 Gy, post-treated
[4] = Table 15, XRT 9 Gy, pre-treated
[5] = Table 15, compound only, no XRT
[6] = Table 16, XRT 9 Gy, post-treated
[7] = Table 16, XRT 9 Gy, pre-treated
[8] = Table 16, compound only, no XRT
[9] = XRT 9 Gy, post-treated, 500 mg/kg daily, n = 6, 2nd time
[10] = XRT 9 Gy, pre-treated, 500 mg/kg daily, n = 6, 1st time
[11] = XRT 9 Gy, pre-treated, 500 mg/kg daily, n = 6, 2nd time
[12] = compound only, no XRT, 500 mg/kg daily 5 days, 2nd time

| Compound | percentage survival rate (Sprague-Dawley rats; [3]) [%] | percentage survival rate (Sprague-Dawley rats; [4]) [%] | percentage survival rate (Sprague-Dawley rats; [5]) [%] | percentage survival rate (Sprague-Dawley rats; [6]) [%] | percentage survival rate (Sprague-Dawley rats; [7]) [%] | percentage survival rate (Sprague-Dawley rats; [8]) [%] | # of animals dead (Sprague-Dawley rats; [9]) | # of animals survived (Sprague-Dawley rats; [9]) | # of animals dead (Sprague-Dawley rats; [10]) | # of animals survived (Sprague-Dawley rats; [10]) | # of animals dead (Sprague-Dawley rats; [11]) | # of animals survived (Sprague-Dawley rats; [11]) | # of animals dead (Sprague-Dawley rats; [12]) | # of animals survived (Sprague-Dawley rats; [12]) | survival rate versus XRT alone (Sprague-Dawley rats) | Catalase Mean (Sprague Dawley rats [1]) | MDA Mean (Sprague Dawley rats [2]; BRAIN) [nmol/100 mg] | MDA Mean (Sprague Dawley rats [2]; KIDNEY) | MDA Mean (Sprague Dawley rats [2]; LIVER) | MDA Mean (Sprague Dawley rats [2]; LUNG) | other results |
| --- | --- | --- | --- | --- | --- | --- | --- | --- | --- | --- | --- | --- | --- | --- | --- | --- | --- | --- | --- | --- | --- |
| N-acetylcysteine amide [NAC amide] | 66.7 | 100 | 100 | 66.7 | 100 | 100 | 2 | 4 | 0 | 6 | 0 | 6 | 0 | 3 | higher survival rate | 3.97** mU/mg | 5.48 | 1.64** nmol/100 mg | 4.38** nmol/100 mg | 1.53** nmol/100 mg | Catalase level (Sprague Dawley rats [1]; listed as AD4, 500 mg/kg): 3.89 mU/mg and 3.46 mU/mg and 4.56 mU/mg; MDA level (Sprague Dawley rats [2]; BRAIN, listed as AD4, 500 mg/kg): 5.79 nmol/100 mg and 5.53 nmol/100 mg and 5.13 nmol/100 mg; MDA level (Sprague Dawley rats [2]; KIDNEY, listed as AD4, 500 mg/kg): 1.96 nmol/100 mg and 1.45 nmol/100 mg; MDA level (Sprague Dawley rats [2]; KIDNEY, listed as AL4, 500 mg/kg): 1.5 nmol/100 mg; MDA level (Sprague Dawley rats [2]; LIVER, listed as AD4, 500 mg/kg): 4.14 nmol/100 mg and 4.65 nmol/100 mg and 4.36 nmol/100 mg; MDA level (Sprague Dawley rats [2]; LUNG, listed as AD4, 500 mg/kg): 1.72 nmol/100 mg and 1.58 nmol/100 mg and 1.28 nmol/100 mg; lung MDA levels (Sprague Dawley rats [2]): significantly lowered |
| CC(=O)N[C@@H](CS)C(=O)O [NAC, N-acetylcysteine] | 33.3 | 83.3 | 100 | 33.3 | 83.3 | 100 | 4 | 2 | 1 | 5 | 1 | 5 | 0 | 2 | higher survival rate | 4.41 mU/mg | 6.15 | 1.65** nmol/100 mg | 5.07**/*** nmol/100 mg | 2.52** nmol/100 mg | Catalase level (Sprague Dawley rats [1]; 500 mg/kg): 5.85 mU/mg and 3.02 mU/mg and 4.36 mU/mg; MDA level (Sprague Dawley rats [2]; BRAIN, 500 mg/kg): 6.42 nmol/100 mg and 6.69 nmol/100 mg and 5.33 nmol/100 mg; MDA level (Sprague Dawley rats [2]; KIDNEY, 500 mg/kg): 1.76 nmol/100 mg and 1.78 nmol/100 mg and 1.41 nmol/100 mg; MDA level (Sprague Dawley rats [2]; LIVER, 500 mg/kg): 5.1 nmol/100 mg (2×) and 5.02 nmol/100 mg; MDA level (Sprague Dawley rats [2]; LUNG, 500 mg/kg): 2.58 nmol/100 mg and 2.34 nmol/100 mg and 2.63 nmol/100 mg; lung MDA levels (Sprague Dawley rats [2]): did not change the MDA levels significantly |
